This note sets out measurements from ChEMBL document CHEMBL5665440, “ASAP - In vitro liver microsomal stability” (2024).

A short description of data set [1]: Human liver microsomal stability of compound in microsomal protein, PBS buffer pH 7.4, NADPH, glucose-6-phosphate and glucose-6-phosphate dehydrogenase media. Aliquotes were taken at 5 time points and after stopping the reaction, supernatants were analyzed using HPLC coupled with a tandem mass spectrometer. The elimination constant, half-life, and intrinsic clearance are determined as results using linear regression analysis. Format: ADME, microsomes, Microsome. The note with it: for half-life / microsomal CLint: liver microsomes; for Remaining / Remaining (without cofactor) / CLint / T1/2: microsomes.

Data set [2] can be described thus: Mouse liver microsomal stability of compound in microsomal protein, PBS buffer pH 7.4, NADPH, glucose-6-phosphate and glucose-6-phosphate dehydrogenase media. Aliquotes were taken at 5 time points and after stopping the reaction, supernatants were analyzed using HPLC coupled with a tandem mass spectrometer. The elimination constant, half-life, and intrinsic clearance are determined as results using linear regression analysis. Format: ADME, microsomes, Microsome. The conditions noted are these: for half-life / microsomal CLint: liver microsomes; for Remaining / Remaining (without cofactor) / CLint / T1/2: microsomes. (In general: Liver microsomes are vesicles of endoplasmic reticulum, rich in cytochrome P450 enzymes.)

“And” between values parts separate entries of the source, which are not always exact repeats. Equal values may be shown once.
Wherever Remaining (without cofactor) is given: time not given here.
Wherever Remaining is given: time not given here.

One may read the half-life as the time needed for the level to fall by half in the phase considered. A word on the microsomal CLint: it is the capacity of the preparation to metabolise the compound, expressed as a volume cleared per time. Higher therefore signals rapid turnover. For `O=C(NCC(F)F)[C@H](Nc1ccc2c(c1)CNC2)c1cc(Cl)cc(C2CC2)c1`, in data set [1], the half-life was > 2.89 h; the microsomal CLint was < 10 µL/min/mg; the Remaining was 87.774% and 93.401% and 87.317% and 91.082%; the “Remaining (without cofactor)” value was 101.867% and 96.07% and 104.631% and 112.978%. In data set [2], the half-life is > 2.89 h; the intrinsic clearance (microsomal CLint) was < 10 µL/min/mg; the Remaining is 90.622% and 93.184%; the “Remaining (without cofactor)” value was 90.232% and 99.155%.
In the case of `O=C1Cc2c(cccc2C(=O)Nc2ccc3c(c2)CNC3)N1`, in data set [1], the half-life is > 2.89 h, the intrinsic clearance (microsomal CLint) was < 10 µL/min/mg, the Remaining was found to be 90.707% and the “Remaining (without cofactor)” value is recorded as 85.739%. In addition, in data set [2], the half-life is > 2.89 h, the microsomal CLint was < 10 µL/min/mg, the Remaining was 102.559% and the “Remaining (without cofactor)” value amounted to 103.618%.
Consider `O=C(Nc1ccc2c(c1)CNC2)c1cc(F)cc2[nH]ncc12`, for which, in data set [1], the half-life was > 2.89 h, the intrinsic clearance (microsomal CLint) was < 10 µL/min/mg, the Remaining worked out at 86.703% and the “Remaining (without cofactor)” value was 98.509%. In addition, in data set [2], the half-life was found to be 0.154 h, the microsomal CLint was determined as 180 µL/min/mg, the Remaining is 5.066% and the “Remaining (without cofactor)” value is given as 103.462%.
As to `O=C(Nc1ccc2c(c1)CNC2)c1cc(Cl)cc2ccncc12`, in data set [1], the half-life is > 2.89 h, the microsomal CLint is < 10 µL/min/mg, the Remaining amounted to 107.799% and the “Remaining (without cofactor)” value was 101.944%. Also, in data set [2], the half-life worked out at 1.14 h, the intrinsic metabolic clearance (microsomal CLint) turned out to be 24.5 µL/min/mg, the Remaining was determined as 67.731% and the “Remaining (without cofactor)” value came out at 99.51%.
As for `O=C(Nc1ccc2c(c1)CNC2)c1cc(F)cc(-c2cn[nH]c2)c1`, in data set [1], the half-life came out at 0.79 h; the microsomal CLint was 35.2 µL/min/mg; the CLint amounted to 36.323 µL/min/mg; the Remaining was 55.679% and 55.059%. Besides, in data set [1], the “Remaining (without cofactor)” value was 98.537% and 92.131%; the T1/2 amounted to 0.76638 h. Also, in data set [2], the half-life came out at 0.051 h; the microsomal CLint was found to be 545 µL/min/mg; the CLint was determined as 553.458 µL/min/mg; the Remaining was 0.198% and 0.909%. Besides, in data set [2], the “Remaining (without cofactor)” value was 96.471% and 97.807%; the T1/2 was 3.018 min.
In the case of `O=C(Nc1ccc2c(c1)CNC2)c1cc(Cl)cc2cn[nH]c12`, in data set [1], the half-life was > 2.89 h, the microsomal CLint was < 10 µL/min/mg, the Remaining turned out to be 105.314% and the “Remaining (without cofactor)” value worked out at 104.393%. In addition, in data set [2], the half-life is 0.516 h, the microsomal CLint was determined as 54 µL/min/mg, the Remaining was 41.728% and the “Remaining (without cofactor)” value is reported as 98.046%.
Take `N#Cc1cccc(-c2nc3c(C(=O)Nc4ccc5c(c4)CNC5)cc(F)cc3[nH]2)c1`: in data set [1], the half-life was > 2.89 h, the microsomal CLint is < 10 µL/min/mg, the Remaining was found to be 89.52% and the “Remaining (without cofactor)” value stood at 98.721%. Also, in data set [2], the half-life stood at 1.27 h, the intrinsic clearance (microsomal CLint) amounted to 22 µL/min/mg, the Remaining was 68.981% and the “Remaining (without cofactor)” value came to 99.493%.
Turning to `O=C(Nc1cc2c(c(-c3c[nH]c(=O)c(F)c3)c1)CNC2)c1cc(F)cc2[nH]ncc12`, in data set [1], the half-life was > 2.89 h, the intrinsic clearance (microsomal CLint) is < 10 µL/min/mg, the Remaining was determined as 95.49% and the “Remaining (without cofactor)” value is 97.444%. Also, in data set [2], the half-life was found to be 0.115 h, the microsomal CLint was 243 µL/min/mg, the Remaining is 2.163% and the “Remaining (without cofactor)” value turned out to be 108.846%.
Regarding `CNC(=O)[C@H](Nc1ccc2c(c1)CNC2)c1cc(Cl)cc2[nH]c(-c3ccccc3)nc12`, in data set [1], the half-life is > 2.89 h, the intrinsic clearance (microsomal CLint) was < 10 µL/min/mg, the Remaining is 91.331% and the “Remaining (without cofactor)” value stood at 107.659%. Besides, in data set [2], the half-life is > 2.89 h, the microsomal CLint was < 10 µL/min/mg, the Remaining is given as 95.033% and the “Remaining (without cofactor)” value is 94.186%.
`N#Cc1cc2c(cc1NC(=O)c1cc(F)cc3[nH]ncc13)CNC2`: in data set [1], the half-life was > 2.89 h; the microsomal CLint is < 10 µL/min/mg; the CLint stood at 16.74 µL/min/mg; the Remaining was 85.714% and 76.558%. Moreover, in data set [1], the “Remaining (without cofactor)” value was 101.075% and 93.161%; the T1/2 came out at 1.6629 h. Also, in data set [2], the half-life was 0.0957 h; the intrinsic metabolic clearance (microsomal CLint) came out at 291 µL/min/mg; the CLint is 288.453 µL/min/mg; the Remaining was 0.854% and 0.916%. In addition, in data set [2], the “Remaining (without cofactor)” value was 97.455% and 90.578%; the T1/2 worked out at 5.79 min.
Regarding `O=C(Nc1cc2c(cc1C1CC1)CNC2)c1cc(F)cc2[nH]ncc12`, in data set [1], the half-life was > 2.89 h, the microsomal CLint was < 10 µL/min/mg, the Remaining was 104.365% and the “Remaining (without cofactor)” value worked out at 104.155%. Further, in data set [2], the half-life was found to be 0.321 h, the microsomal CLint was determined as 86.8 µL/min/mg, the Remaining was 23.262% and the “Remaining (without cofactor)” value was 95.024%.
Take `Cn1c(=O)[nH]c2c(C(=O)Nc3ccc4c(c3)CNC4)cc(Br)cc21`: in data set [1], the half-life is > 2.89 h, the intrinsic clearance (microsomal CLint) is < 10 µL/min/mg, the Remaining is listed as 97.872% and the “Remaining (without cofactor)” value is on record as 85.479%. In data set [2], the half-life was found to be 2.23 h, the microsomal CLint came to 12.5 µL/min/mg, the Remaining is 78.028% and the “Remaining (without cofactor)” value is on record as 113.254%.
In the case of `O=C(Nc1ccc2c(c1)CNC2)c1cc(F)cc2c1CCC2`, in data set [1], the half-life was > 2.89 h, the intrinsic metabolic clearance (microsomal CLint) was < 10 µL/min/mg, the Remaining was found to be 95.811% and the “Remaining (without cofactor)” value is on record as 102.779%. Moreover, in data set [2], the half-life is 0.745 h, the intrinsic clearance (microsomal CLint) stood at 37.4 µL/min/mg, the Remaining worked out at 53.571% and the “Remaining (without cofactor)” value stood at 103.66%.
For `O=C(NCC(F)F)[C@H](Nc1ccc2c(c1)CNC2)c1cc(Cl)cc2ccoc12`, in data set [1], the half-life was > 2.89 h, the microsomal CLint is < 10 µL/min/mg, the Remaining was determined as 100.816% and the “Remaining (without cofactor)” value stood at 103.719%. Besides, in data set [2], the half-life is > 2.89 h, the intrinsic clearance (microsomal CLint) is < 10 µL/min/mg, the Remaining was 93.727% and the “Remaining (without cofactor)” value is listed as 105.352%.
With `O=C(Nc1ccc2c(c1)CNC2)c1cc(F)cc2[nH]c(-c3ccc(F)cc3)nc12`, in data set [1], the half-life is > 2.89 h, the microsomal CLint is < 10 µL/min/mg, the Remaining is 90% and the “Remaining (without cofactor)” value is reported as 94.287%. In data set [2], the half-life was 0.756 h, the microsomal CLint stood at 36.8 µL/min/mg, the Remaining is listed as 54.776% and the “Remaining (without cofactor)” value worked out at 103.385%.
With `COc1cc(-c2cc(NC(=O)c3cc(F)cc4[nH]ncc34)cc3c2CNC3)ccn1`, in data set [1], the half-life was > 2.89 h, the intrinsic metabolic clearance (microsomal CLint) was < 10 µL/min/mg, the Remaining is recorded as 90.289% and the “Remaining (without cofactor)” value is reported as 101.002%. In addition, in data set [2], the half-life worked out at 0.107 h, the microsomal CLint was 260 µL/min/mg, the Remaining is on record as 1.475% and the “Remaining (without cofactor)” value came out at 106.757%.
For the compound `CC(C)n1cc2c(C(=O)Nc3ccc4c(c3)CNC4)cc(Cl)cc2n1`, in data set [1], the half-life was > 2.89 h, the microsomal CLint is < 10 µL/min/mg, the Remaining is given as 96.618% and the “Remaining (without cofactor)” value was determined as 96.957%. Moreover, in data set [2], the half-life is > 2.89 h, the intrinsic metabolic clearance (microsomal CLint) is < 10 µL/min/mg, the Remaining is given as 89.02% and the “Remaining (without cofactor)” value was 93.513%.
In the case of `O=C(Nc1cc2c(cc1Br)CNC2)c1cc(F)cc2[nH]ncc12`, in data set [1], the half-life was 2.44 h, the microsomal CLint stood at 11.4 µL/min/mg, the Remaining was found to be 83.663% and the “Remaining (without cofactor)” value is reported as 98.81%. For the same compound, in data set [2], the half-life stood at 0.093 h, the microsomal CLint was 299 µL/min/mg, the Remaining worked out at 0.737% and the “Remaining (without cofactor)” value was found to be 95.151%.
Turning to `O=C(Nc1cc2c(c(C3=CCS(=O)(=O)CC3)c1)CNC2)c1cc(F)cc2[nH]ncc12`, in data set [1], the half-life was > 2.89 h, the microsomal CLint was < 10 µL/min/mg, the Remaining was 98.934% and the “Remaining (without cofactor)” value is given as 96.094%. Further, in data set [2], the half-life came out at 0.287 h, the intrinsic metabolic clearance (microsomal CLint) worked out at 96.9 µL/min/mg, the Remaining is listed as 20.909% and the “Remaining (without cofactor)” value stood at 113.863%.
`O=C(Nc1ccc2c(c1)CNC2)c1cc(Cl)cc2c1cnn2C1CCC1`: in data set [1], the half-life was > 2.89 h, the microsomal CLint was < 10 µL/min/mg, the Remaining is reported as 93.064% and the “Remaining (without cofactor)” value was 105.277%. Moreover, in data set [2], the half-life worked out at 2.08 h, the microsomal CLint stood at 13.4 µL/min/mg, the Remaining came out at 78.077% and the “Remaining (without cofactor)” value worked out at 96.092%.
Turning to `O=C(Nc1cc2c(c(C3=CCOCC3)c1)CNC2)c1cc(F)cc2[nH]ncc12`, in data set [1], the half-life is > 2.89 h, the intrinsic clearance (microsomal CLint) was < 10 µL/min/mg, the Remaining turned out to be 90.19% and the “Remaining (without cofactor)” value was found to be 105.644%. In data set [2], the half-life worked out at 0.184 h, the intrinsic clearance (microsomal CLint) came out at 152 µL/min/mg, the Remaining turned out to be 8.587% and the “Remaining (without cofactor)” value was found to be 96.063%.
